Experimental data reported in patent US20210038607A1, “OXADIAZOLYLTHIOPHENE DERIVATIVES USEFUL AS HISTONE DEACETYLASE INHIBITORS” (Karus Therapeutics Limited, priority 2018, published 2021).

What was measured:
Human HDAC1 = target: T1, Human HDAC1 (Homo sapiens, UniProt Q13547); experiment: HDAC1 biochemical assay, AMC-labeled peptide substrate; settings: read-out: HDAC Isoform IC50 (nM) 1
T1 construct: full length with C-terminal His-tag and C-terminal FLAG-tag; His (C); FLAG (C); host or cells: baculovirus expression system
T1 sequence (Q13547 whole entry, canonical isoform): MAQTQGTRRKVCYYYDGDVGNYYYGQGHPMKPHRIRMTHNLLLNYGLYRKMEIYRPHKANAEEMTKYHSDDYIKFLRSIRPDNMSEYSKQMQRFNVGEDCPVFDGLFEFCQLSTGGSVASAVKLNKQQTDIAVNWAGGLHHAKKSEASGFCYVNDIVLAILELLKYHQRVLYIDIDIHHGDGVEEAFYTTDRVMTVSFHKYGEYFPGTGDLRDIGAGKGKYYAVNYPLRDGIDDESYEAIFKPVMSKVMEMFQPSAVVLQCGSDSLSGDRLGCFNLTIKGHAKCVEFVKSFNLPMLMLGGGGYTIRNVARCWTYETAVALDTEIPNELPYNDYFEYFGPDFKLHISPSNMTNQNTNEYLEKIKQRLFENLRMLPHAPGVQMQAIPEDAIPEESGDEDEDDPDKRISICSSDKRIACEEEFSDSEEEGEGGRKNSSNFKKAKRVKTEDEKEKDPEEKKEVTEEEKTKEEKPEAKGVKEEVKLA
Summary of the method: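 Baculovirus-expressed full-length human HDAC1 with His and FLAG tags, 0.3 ng/ul, incubated 1 h at 30° C with compound and 50 μM RHKK(Ac)AMC in Tris pH 8.0 buffer with BSA and 1% DMSO. Developer then releases AMC from deacetylated substrate; fluorescence read at 360/460 nm.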

Human HDAC2 = target: T2, Human HDAC2 (Homo sapiens, UniProt Q92769); experiment: HDAC2 biochemical assay, AMC-labeled peptide substrate; settings: read-out: HDAC Isoform IC50 (nM) 2
T2 construct: full length with C-terminal GST-tag; GST (C); host or cells: baculovirus expression system
T2 sequence (Q92769 whole entry, canonical isoform): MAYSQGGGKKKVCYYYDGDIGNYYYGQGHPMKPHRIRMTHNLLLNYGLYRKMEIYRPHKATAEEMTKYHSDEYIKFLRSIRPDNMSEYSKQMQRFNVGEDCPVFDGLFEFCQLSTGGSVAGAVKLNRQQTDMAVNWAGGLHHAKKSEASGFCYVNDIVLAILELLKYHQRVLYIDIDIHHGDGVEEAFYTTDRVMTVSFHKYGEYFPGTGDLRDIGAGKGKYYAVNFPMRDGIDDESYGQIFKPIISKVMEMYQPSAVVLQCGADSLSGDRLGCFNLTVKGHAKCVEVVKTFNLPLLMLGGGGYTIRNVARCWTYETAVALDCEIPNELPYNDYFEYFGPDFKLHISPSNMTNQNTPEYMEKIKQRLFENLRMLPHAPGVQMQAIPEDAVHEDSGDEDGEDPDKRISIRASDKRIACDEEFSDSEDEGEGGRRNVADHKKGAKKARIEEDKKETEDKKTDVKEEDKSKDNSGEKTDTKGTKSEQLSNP
Summary of the method: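 Full-length human HDAC2 with C-terminal GST tag, baculovirus-expressed, at 0.07 ng/ul with 50 μM RHKK(Ac)AMC substrate in Tris-HCl pH8.0 buffer with BSA, 1% DMSO final. Incubated 1 hour at 30° C with compounds, then developer added; fluorescence read at 360/460 Ex/Em.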

Human HDAC9 = target: T3, Human HDAC9 (Homo sapiens, UniProt Q9UKV0); experiment: HDAC9 biochemical assay, class IIa-specific substrate; settings: read-out: HDAC Isoform IC50 (nM) 9
T3 construct: amino acids 604-1066 with C-terminal His tag; His (C); host or cells: baculovirus expression system
T3 sequence (Q9UKV0 604-1066 isoform Q9UKV0-5): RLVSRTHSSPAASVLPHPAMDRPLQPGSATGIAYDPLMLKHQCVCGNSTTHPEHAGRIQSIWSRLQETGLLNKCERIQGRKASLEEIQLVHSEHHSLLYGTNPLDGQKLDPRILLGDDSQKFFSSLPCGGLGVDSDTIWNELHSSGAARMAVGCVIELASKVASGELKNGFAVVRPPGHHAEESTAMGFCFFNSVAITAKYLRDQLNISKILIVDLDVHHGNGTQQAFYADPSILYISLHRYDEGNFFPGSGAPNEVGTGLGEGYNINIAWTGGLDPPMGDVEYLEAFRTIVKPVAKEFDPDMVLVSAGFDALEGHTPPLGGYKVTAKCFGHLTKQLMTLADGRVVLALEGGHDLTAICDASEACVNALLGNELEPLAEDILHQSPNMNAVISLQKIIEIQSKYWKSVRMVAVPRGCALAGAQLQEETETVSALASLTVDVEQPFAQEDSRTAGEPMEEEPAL
Summary of the method: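 HDAC9 residues 604-1066 (C-terminal His tag, baculovirus-expressed) at 0.06 ng/ul with 50 μM class IIa substrate Boc-Lys(trifluoroacetyl)-AMC in Tris-HCl pH 8.0 buffer with BSA and 1% DMSO. 30 min at room temperature, then developer added; fluorescence read at 360/460 nm Ex/Em.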

Human HDAC10 = target: T4, Human HDAC10 (Homo sapiens, UniProt Q969S8); experiment: HDAC10 biochemical assay, AMC-labeled peptide substrate; settings: read-out: HDAC Isoform IC50 (nM) 10
T4 construct: Human HDAC10 (a.a. 1-481); GST (N); His (C); host or cells: baculovirus expression system
T4 sequence (Q969S8 1-481): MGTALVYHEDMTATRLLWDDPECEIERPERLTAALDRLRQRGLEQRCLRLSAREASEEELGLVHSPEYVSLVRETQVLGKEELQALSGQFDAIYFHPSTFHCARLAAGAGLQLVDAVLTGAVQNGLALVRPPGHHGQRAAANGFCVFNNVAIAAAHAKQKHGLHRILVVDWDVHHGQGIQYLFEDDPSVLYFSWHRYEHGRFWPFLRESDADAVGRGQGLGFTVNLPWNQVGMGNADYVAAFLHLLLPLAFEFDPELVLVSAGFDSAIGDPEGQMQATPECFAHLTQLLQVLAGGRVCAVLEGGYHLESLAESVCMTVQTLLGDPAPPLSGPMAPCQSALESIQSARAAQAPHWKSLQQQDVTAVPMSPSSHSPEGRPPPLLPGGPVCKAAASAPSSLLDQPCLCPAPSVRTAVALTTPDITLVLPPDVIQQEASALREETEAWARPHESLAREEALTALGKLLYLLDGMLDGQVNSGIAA
Summary of the method: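 Baculovirus-expressed GST/His-tagged human HDAC10 (aa 1-481), 12 ng/ul, incubated with 50 μM RHKK(Ac)AMC in Tris pH 8.0 buffer with BSA and 1% DMSO, 2 h at 30 °C. Developer then releases AMC, read at 360/460 nm.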

Human HDAC7 = target: T5, Human HDAC7 (Homo sapiens, UniProt Q8WUI4); experiment: HDAC7 biochemical assay, class IIa-specific substrate; settings: read-out: HDAC Isoform IC50 (nM) 7
T5 construct: (a.a. 518-end) with N-terminal GST tag; GST (N); host or cells: baculovirus expression system
T5 sequence (Q8WUI4 518-952 limits assumed): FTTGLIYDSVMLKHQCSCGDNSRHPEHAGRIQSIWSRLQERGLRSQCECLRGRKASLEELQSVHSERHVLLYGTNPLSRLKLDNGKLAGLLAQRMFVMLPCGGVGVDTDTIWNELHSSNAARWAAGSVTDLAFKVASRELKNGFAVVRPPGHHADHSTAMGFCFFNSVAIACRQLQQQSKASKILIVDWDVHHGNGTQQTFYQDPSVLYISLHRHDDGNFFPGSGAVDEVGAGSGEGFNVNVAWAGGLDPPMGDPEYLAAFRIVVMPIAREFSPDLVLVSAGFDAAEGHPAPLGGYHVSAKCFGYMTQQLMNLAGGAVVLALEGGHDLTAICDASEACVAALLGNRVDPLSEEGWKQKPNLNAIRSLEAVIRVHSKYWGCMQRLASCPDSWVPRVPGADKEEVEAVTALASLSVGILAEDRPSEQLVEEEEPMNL
Summary of the method: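 GST-tagged HDAC7 (a.a. 518-end, baculovirus-expressed) at 0.001 ng/ul with 50 μM Boc-Lys(trifluoroacetyl)-AMC substrate, 30 min at room temperature in pH 8.0 Tris buffer with BSA, 1% DMSO final. Developer then releases AMC; fluorescence read at 360/460 nm.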

Row | IC50 (Human HDAC1) | IC50 (Human HDAC2) | IC50 (Human HDAC9) | IC50 (Human HDAC10) | IC50 (Human HDAC7) | Structure (SMILES)
1 | > 10000 nM | > 10000 nM | ≤ 10000 nM | > 10000 nM | ≤ 1000 nM | FC(F)(F)c1nc(-c2ccc(CN(c3cnccn3)c3ccc(CN4CCOCC4)nn3)s2)no1 [Example FN, 6-[(Morpholin-4-yl)methyl]-N-(pyrazin-2-yl)-N-({5-[5-(trifluoromethyl)-1,2,4-oxadiazol-3-yl]thiophen-2-yl}methyl)pyridazin-3-amine]
2 | ≤ 10000 nM | > 10000 nM | ≤ 1000 nM | > 10000 nM | ≤ 500 nM | NC(=O)c1ccc(N(Cc2ccc(-c3noc(C(F)(F)F)n3)s2)c2cnccn2)nn1 [Example DQ, 6-[(Pyrazin-2-yl)({5-[5-(trifluoromethyl)-1,2,4-oxadiazol-3-yl]thiophen-2-yl}methyl)amino]pyridazine-3-carboxamide]
3 | > 10000 nM | > 10000 nM | ≤ 10000 nM | > 10000 nM | ≤ 500 nM | FC(F)(F)c1nc(-c2ccc(CN(c3cnccn3)c3cc(-c4ccccn4)cnn3)s2)no1 [Example GM, N-(Pyrazin-2-yl)-5-(pyridin-2-yl)-N-({5-[5-(trifluoromethyl)-1,2,4-oxadiazol-3-yl]thiophen-2-yl}methyl)pyridazin-3-amine]
4 | ≤ 10000 nM | > 10000 nM | ≤ 10000 nM | > 10000 nM | ≤ 1000 nM | CC(=O)Nc1cnnc(N(Cc2ccc(-c3noc(C(F)(F)F)n3)s2)c2cnccn2)c1 [Example FM, N-{6-[(Pyrazin-2-yl)({5-[5-(trifluoromethyl)-1,2,4-oxadiazol-3-yl]thiophen-2-yl}methyl)amino]pyridazin-4-yl}acetamide]
5 | > 10000 nM | > 10000 nM | > 10000 nM | > 10000 nM | ≤ 10000 nM | O=C(O)c1cnnc(N(Cc2ccc(-c3noc(C(F)(F)F)n3)s2)c2cc(C(F)(F)F)cnn2)c1 [Example ES, 6-[({5-[5-(Trifluoromethyl)-1,2,4-oxadiazol-3-yl]thiophen-2-yl}methyl)[5-(trifluoromethyl)pyridazin-3-yl]amino]pyridazine-4-carboxylicacid]
6 | > 10000 nM | > 10000 nM | ≤ 10000 nM | > 10000 nM | ≤ 1000 nM | O=C(c1cnnc(N(Cc2ccc(-c3noc(C(F)(F)F)n3)s2)c2cnccn2)c1)N1CC2(COC2)C1 [Example FZ, 5-{2-Oxa-6-azaspiro[3.3]heptane-6-carbonyl}-N-(pyrazin-2-yl)-N-({5-[5-(trifluoromethyl)-1,2,4-oxadiazol-3-yl]thiophen-2-yl}methyl)pyridazin-3-amine]
7 | ≤ 10000 nM | > 10000 nM | ≤ 10000 nM | > 10000 nM | ≤ 500 nM | O=C(c1cnnc(N(Cc2ccc(-c3noc(C(F)(F)F)n3)s2)c2cnccn2)c1)N1CC(C(F)F)C1 [Example GK, 5-[3-(Difluoromethyl)azetidine-1-carbonyl]-N-(pyrazin-2-yl)-N-({5-[5-(trifluoromethyl)-1,2,4-oxadiazol-3-yl]thiophen-2-yl}methyl)pyridazin-3-amine]
8 | ≤ 10000 nM | > 10000 nM | ≤ 1000 nM | > 10000 nM | ≤ 500 nM | O=C(c1ccc(N(Cc2ccc(-c3noc(C(F)(F)F)n3)s2)c2cnccn2)nn1)N1C[C@@H]2C[C@H]1C[S@@+]2[O-] [Example FR, (1S,2R,4S)-5-{6-[(Pyrazin-2-yl)({5-[5-(trifluoromethyl)-1,2,4-oxadiazol-3-yl]thiophen-2-yl}methyl)amino]pyridazine-3-carbonyl}-2-thia-5-azabicyclo[2.2.1]heptan-2-ium-2-olate]
9 | ≤ 10000 nM | > 10000 nM | ≤ 10000 nM | > 10000 nM | ≤ 500 nM | O=C(c1ccc(N(Cc2ccc(-c3noc(C(F)(F)F)n3)s2)c2cnccn2)nn1)N1CC[S+]([O-])CC1 [Example FD, 4-{6-[(Pyrazin-2-yl)({5-[5-(trifluoromethyl)-1,2,4-oxadiazol-3-yl]thiophen-2-yl}methyl)amino]pyridazine-3-carbonyl}-1lambda4-thiomorpholin-1-one]
10 | ≤ 10000 nM | > 10000 nM | ≤ 10000 nM | > 10000 nM | ≤ 1000 nM | CC(C)(O)c1cnnc(N(Cc2ccc(-c3noc(C(F)(F)F)n3)s2)c2cnccn2)c1 [Example GS, 2-{6-[(Pyrazin-2-yl)({5-[5-(trifluoromethyl)-1,2,4-oxadiazol-3-yl]thiophen-2-yl}methyl)amino]pyridazin-4-yl}propan-2-ol]
11 | ≤ 10000 nM | > 10000 nM | ≤ 500 nM | > 10000 nM | ≤ 500 nM | COC1CN(C(=O)c2ccc(N(Cc3ccc(-c4noc(C(F)(F)F)n4)s3)c3cnccn3)nn2)C1 [Example DR, 6-(3-Methoxyazetidine-1-carbonyl)-N-(pyrazin-2-yl)-N-({5-[5-(trifluoromethyl)-1,2,4-oxadiazol-3-yl]thiophen-2-yl}methyl)pyridazin-3-amine]
12 | > 10000 nM | > 10000 nM | ≤ 10000 nM | > 10000 nM | ≤ 10000 nM | COC1CN(Cc2ccnc(N(Cc3ccc(-c4noc(C(F)(F)F)n4)s3)c3cnccn3)c2)C1 [Example GH, N-{4-[(3-Methoxyazetidin-1-yl)methyl]pyridin-2-yl}-N-({5-[5-(trifluoromethyl)-1,2,4-oxadiazol-3-yl]thiophen-2-yl}methyl)pyrazin-2-amine]
13 | > 10000 nM | > 10000 nM | ≤ 10000 nM | > 10000 nM | ≤ 1000 nM | COC1CN(C(=O)c2cnnc(N(Cc3ccc(-c4noc(C(F)(F)F)n4)s3)c3cnccn3)c2)C1 [Example DZ, 5-(3-Methoxyazetidine-1-carbonyl)-N-(pyrazin-2-yl)-N-({5-[5-(trifluoromethyl)-1,2,4-oxadiazol-3-yl]thiophen-2-yl}methyl)pyridazin-3-amine]
14 | > 10000 nM | > 10000 nM | ≤ 10000 nM | > 10000 nM | ≤ 10000 nM | COc1nccnc1N(Cc1ccc(-c2noc(C(F)(F)F)n2)s1)c1cnccn1 [Example BF, 3-Methoxy-N-(pyrazin-2-yl)-N-({5-[5-(trifluoromethyl)-1,2,4-oxadiazol-3-yl]thiophen-2-yl}methyl)pyrazin-2-amine]
15 | > 10000 nM | > 10000 nM | ≤ 10000 nM | > 10000 nM | ≤ 10000 nM | O=C(c1cnnc(N(Cc2ccc(-c3noc(C(F)(F)F)n3)s2)c2cnccn2)c1)N1C[C@H]2C[C@@H]1CO2 [Example FW, 5-[(1R,4R)-2-Oxa-5-azabicyclo[2.2.1]heptane-5-carbonyl]-N-(pyrazin-2-yl)-N-({5-[5-(trifluoromethyl)-1,2,4-oxadiazol-3-yl]thiophen-2-yl}methyl)pyridazin-3-amine]
